One may read the inhibition in vivo as the change of the read-out against control, counted positive when it falls. By IC50 is commonly meant the concentration that gives 50% inhibition. High values mean weaker potency, low ones greater potency.

Molecules are shown by their SMILES. Activity calls are given as the source filed them. The calls are words filed in the database; no cut-off is given here.

Series [1] can be described thus: Cytotoxicity against mouse RAW264.7 cells assessed as cell viability at 50 uM measured after 24 hrs by MTT assay. It is filed as toxicity, cell-based. To be noted: read-out: Activity.
The nature of series [2]: Cytotoxicity against mouse RAW264.7 cells assessed as maximal safe dose measured after 24 hrs by MTT assay. It is filed as toxicity, cell-based. To be noted: read-out: MTD. A general note: Tetrazolium dyes change colour on reduction, which living cells bring about.
Series [3] concerns Mus musculus. In words: Anti-inflammatory activity against carrageenan-induced paw edema in ICR mouse model assessed as reduction in IL-6 level in serum at 10 mg/kg, po measured after 5 hrs by ELISA relative to control. The format is functional. (In general: The carrageenan paw model is a standard test of acute inflammation.)
The test system of series [4] is Mus musculus. The experiment in a line: Anti-inflammatory activity against carrageenan-induced paw edema in ICR mouse model assessed as reduction in TNF-alpha level in serum at 10 mg/kg, po measured after 5 hrs by ELISA relative to control. It is filed as functional.
The subject of series [5] is Mus musculus. The experiment in a line: Anti-inflammatory activity against carrageenan-induced hind paw edema mouse model assessed as reduction in cellular infiltration in connective tissue at 10 mg/kg, po. The format is functional, organism-based.
The test system of series [6] is Mus musculus. The experiment in a line: Anti-inflammatory activity against carrageenan-induced hind paw edema mouse model assessed as decrease in COX-2 expression in connective tissue at 10 mg/kg, po. The format is functional, organism-based.
The nature of series [7]: Gastric ulcerogenic activity in mouse assessed as mucosal erosion and inflammatory cellular infiltration at 2.5 to 10 mg/kg, po by hematoxylin and eosin staining based assay. It is filed as toxicity, organism-based. The settings on record: in vivo, dose 2.5-10 mg/kg.
Series [8] relates to RAW264.7. In words: cells. The settings on record: Mus musculus, RAW264.7, 24 h.
Description: Anti-inflammatory activity against mouse RAW264.7 cells assessed as inhibition of LPS-induced NO production measured after 24 hrs incubation by Griess analysis

Consider `N#Cc1ccc(-n2nc(C(=O)OCc3c(-c4ccccc4)no[n+]3[O-])nc2CCl)cc1`, for which, in series [1], the viability at 24 h, 50 µM was more than 95%. The MNTC at 24 h in series [2] is approximately 20 µg/mL.

For `O=C(OCc1c(-c2ccccc2)no[n+]1[O-])c1nc(CCl)n(-c2ccc(C(F)(F)F)cc2)n1`, the viability at 24 h, 50 µM in series [1] was more than 95%. For the same compound, in series [2], the MNTC at 24 h is approximately 20 µg/mL.

For `O=C(OCc1c(-c2ccccc2)no[n+]1[O-])c1nc(CCl)n(-c2ccccc2)n1`, the viability at 24 h, 50 µM in series [1] was more than 95%. For the same compound, in series [2], the MNTC at 24 h is approximately 20 µg/mL.

Consider `COc1ccc2c(c1)c(CC(=O)O)c(C)n2C(=O)c1ccc(Cl)cc1` [INDOMETHACIN], for which the inhibition in vivo at 10 mg/kg was determined as 44% in series [3] and 29.8% in series [4]. Besides, the outcome in series [5] and in series [6] was Active. For the same compound, the Activity result in series [7] is “Toxic”. The same compound gave an IC50 in series [8] of 56.8 µM.

Take `O=C(OCc1c(-c2ccccc2)no[n+]1[O-])c1nc(CCl)n(-c2ccccc2C(F)(F)F)n1`: the viability at 24 h, 50 µM in series [1] was more than 95%. Besides, the MNTC at 24 h in series [2] is approximately 20 µg/mL. The compound further returned an IC50 in series [8] of 13.8 µM.

As to `Cc1ccc(-n2nc(C(=O)OCc3c(-c4ccccc4)no[n+]3[O-])nc2CCl)cc1`, the viability at 24 h, 50 µM in series [1] is more than 95%. For the same compound, the MNTC at 24 h in series [2] is approximately 20 µg/mL.

For `O=C(OCc1c(-c2ccccc2)no[n+]1[O-])c1nc(CCl)n(-c2cccc(C(F)(F)F)c2)n1`, the viability at 24 h, 50 µM in series [1] is more than 95%. In series [2], the MNTC at 24 h was approximately 20 µg/mL. Further, the Activity result in series [7] was “Non-Toxic”.

With `Cc1cccc(-n2nc(C(=O)OCc3c(-c4ccccc4)no[n+]3[O-])nc2CCl)c1`, the viability at 24 h, 50 µM in series [1] is more than 95%. The MNTC at 24 h in series [2] is approximately 20 µg/mL. This compound also yielded an IC50 in series [8] of 6.1 µM.

`COc1ccc(-n2nc(C(=O)OCc3c(-c4ccccc4)no[n+]3[O-])nc2CCl)cc1`: the viability at 24 h, 50 µM in series [1] was more than 95%. The MNTC at 24 h in series [2] is approximately 20 µg/mL.

For the compound `O=C(OCc1c(-c2ccccc2)no[n+]1[O-])c1nc(CCl)n(-c2ccccc2F)n1`, in series [1], the viability at 24 h, 50 µM was more than 95%. In series [2], the MNTC at 24 h was approximately 20 µg/mL. Moreover, in series [8], inhibition was half-maximal at 14.6 µM (IC50).

Consider `O=C(OCc1c(-c2ccccc2)no[n+]1[O-])c1nc(CCl)n(-c2cccc(F)c2)n1`, for which, in series [1], the viability at 24 h, 50 µM was more than 95%. Further, the MNTC at 24 h in series [2] was approximately 20 µg/mL.

With `O=C(OCc1c(-c2ccccc2)no[n+]1[O-])c1nc(CCl)n(-c2ccc(F)cc2)n1`, the viability at 24 h, 50 µM in series [1] is more than 95%. For the same compound, in series [2], the MNTC at 24 h is approximately 20 µg/mL.

Turning to `[O-][n+]1ccno1`, half-maximal inhibition in series [8] (IC50) required 50 µM.

For the origin of these results see ChEMBL document CHEMBL5620357, “Synthesis and anti-inflammatory activity evaluation of NO-releasing furoxan/1,2,4-triazole hybrid derivatives” (Eur J Med Chem, 2023).
